Assay [1] has as its target S1P1 (membranes prepared from S1P1/CHO cells) (Homo sapiens (Human), UniProt P21453). Nature of the assay: Receptor [35S] GTPγS Binding Assay (S1P1 GTPγS). The assay is classed as biochemical. Conditions: GTPγS S1P1 versus GTPγS S1P3 binding assays. On the procedure: Receptor [^35S] GTPγS Binding Assays: (S1P1 GTPγS/S1P3 GTPγS)
Compounds were loaded in a 384 Falcon v-bottom plate (0.5 μl/well in a 11 point, 3-fold dilution). Membranes prepared from S1P1/CHO cells or EDG3-Gal5-bla HEK293T cells (EDG3 equivalent S1P3) were added to the compound plate ([…], final protein 3 μg/well) with MULTIDROP®. [^35S]GTP (1250 Ci/mmol, Perkin Elmer) was diluted in assay buffer: 20 mM HEPES, pH7.5, 10 mM MgCl2, 150 mM NaCl, 1 mM EGTA (ethylene glycol tetraacetic acid), 1 mM DTT (Dithiothreitol), 10 μM GDP, 0.1% fatty acid free BSA, and 10 μg/ml Saponin to 0.4 nM. 40 μl of the [^35S] GTP solution was added to the compound plate with a final concentration of 0.2 nM. The reaction was kept at room temperature for 45 min. At the end of incubation, all the mixtures in the compound plate were transferred to Millipore 384-well FB filter plates via the VELOCITY11® Vprep liquid handler. The filter plate was washed with water 4 times by using the manifold Embla plate washer and dried at 60° C. for 45 min. MicroScint 20 scintillation fluid (30 μl) was added to each well for counting on the Packard TOPCOUNT®.
A larger value for the GTPγS S1P3 EC50 value indicated less activity in the GTPγS S1P3 binding assay.

Assay [2] relates to spontaneous lupus, anti-dsDNA antibodies and kidney histology. Nature of the assay: MRL/lpr Lupus Model. The format is in vivo. Conditions: MRL/lpr mice, p.o. daily. An excerpt:
MRL/lpr Lupus Model: MRL/lpr is a spontaneous model of lupus. Male MRL/lpr mice (Jackson Laboratory) at the age of 12-14 weeks were enrolled for the study (N=12). […] Mice were bled every other week for anti-dsDNA antibodies measured by ELISA using pooled serum from diseased MRL/lpr mice as a positive comparator in each assay. The data were expressed in arbitrary units as a ratio of the titer of the test serum to the titer of the pooled MRL/lpr immune serum. At the end of study, one kidney was collected into 10% neutral buffered formalin and ZincTris fixatives. Fixed tissues were processed into paraffin blocks, sectioned at 3 μm, and stained with H&E or PASH. Kidney sections were graded using following criteria: Glomerular Damage: 1. Mesangial matrix thickening, cell proliferation, 2. Crescent formation, cellular deposits/casts in Bowman's space, 3. Cellular infiltration, mononuclear cells in glomerular tufts, 4. Fibrosis of Bowman's capsule. Tubular damage: 1. Infiltration of mononuclear cells, 2. Severity of tubular damage, 3. Protein casts. Tubulo-interstitial damage: 1. Fibrosis, 2. Infiltration of mononuclear cells. Each subcategory was assigned a score from 0-4, with the scores for glomerular indices representing the mean from 20 glomeruli per kidney. The total score for each mouse was the sum of the above 9 subcategories, with the highest possible score=36.

Chain of S1P1 (membranes prepared from S1P1/CHO cells) (P21453 whole entry): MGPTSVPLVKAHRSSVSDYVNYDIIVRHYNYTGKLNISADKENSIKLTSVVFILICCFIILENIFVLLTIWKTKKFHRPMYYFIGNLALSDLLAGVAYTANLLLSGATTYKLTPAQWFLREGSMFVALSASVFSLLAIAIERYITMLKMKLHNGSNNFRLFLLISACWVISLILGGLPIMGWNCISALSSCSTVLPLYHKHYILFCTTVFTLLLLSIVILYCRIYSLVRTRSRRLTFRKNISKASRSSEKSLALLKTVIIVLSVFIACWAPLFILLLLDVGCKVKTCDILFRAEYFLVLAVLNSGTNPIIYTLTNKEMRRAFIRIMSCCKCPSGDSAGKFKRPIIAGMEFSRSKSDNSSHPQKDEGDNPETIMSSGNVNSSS

For the compound `COCCCCCC1CCc2cc([C@H]3CC[C@](N)(COP(=O)(O)O)C3)ccc2C1` (single isomer, unassigned) [Example 689], the “activity as an agonist of S1P1 and selectivity over S1P3” value in assay [1] is “possessed activity as an agonist of S1P1 and is selective over S1P3”.

Take `COc1ccccc1CC[C@@H]1CCc2cc([C@H]3CC[C@](N)(CO)C3)ccc2C1` [Example 681, ((1R,3S)-1-amino-3-((S)-6-(2-methoxyphenethyl)-5,6,7,8-tetrahydronaphthalen-2-yl)cyclopentyl)methanol]: the “inhibition of disease progression as measured by anti-dsDNA titers and kidney histology” value in assay [2] was “showed inhibition of disease progression”.

The values are drawn from patent publication US11058696B2, “Substituted bicyclic compounds” (BRISTOL-MYERS SQUIBB COMPANY, priority 2014, dated 2021).
